Laboratory results: EPA's ToxRefDB 2

Legend:
[1] = system: dog; conditions: Chronic toxicity, beagle, Oral, Capsule, dose end: 12 month, group: systemic
[2] = system: rat; conditions: Prenatal developmental toxicity study, wistar, Oral, Gavage/Intubation, dose end: 16 GD
[3] = system: rat; conditions: Multigenerational reproductive toxicity study, sprague dawley, Oral, Feed, dose end: 2 generation
[4] = system: dog; conditions: Chronic toxicity, beagle, Oral, Feed, dose end: 12 month, group: systemic
[5] = system: rabbit; conditions: Prenatal developmental toxicity study, dutch, Oral, Gavage/Intubation, dose end: 18 GD
[6] = system: rat; conditions: Subchronic oral toxicity in rodents, wistar, Feed, dose end: 3 month, group: systemic
[7] = system: rat; conditions: Combined chronic toxicity/carcinogenicity; wistar; Oral; Feed; dose end: 28 month; group: systemic; systemic / in life observation / body weight / body weight + systemic / in life observation / body weight / body weight gain
[8] = systemic / clinical chemistry / gamma glutamyl transferase (ggt) / gamma glutamyl transferase (ggt)
[9] = group: developmental, developmental / developmental malformation / bone / bent + developmental / developmental malformation / bone / incomplete ossification + …
[10] = group: maternal, reproductive / reproductive performance / resorptions / resorptions + systemic / in life observation / body weight / body weight gain + …
[11] = group: offspring, systemic / in life observation / clinical signs / reduced body size
[12] = group: offspring, systemic / in life observation / clinical signs / reduced body size + systemic / in life observation / body weight / offspring (pup) weight
[13] = group: parental, systemic / in life observation / body weight / body weight + systemic / in life observation / body weight / body weight gain + systemic / in…
[14] = group: parental, systemic / in life observation / body weight / body weight + systemic / in life observation / food consumption / food consumption
[15] = group: developmental, developmental / developmental malformation / bone / incomplete ossification + developmental / developmental malformation / bone / misshapen…
[16] = group: maternal, reproductive / reproductive performance / aborted / aborted + systemic / in life observation / food consumption / food consumption + …
[17] = systemic / hematology / hemoglobin (hgb) / hemoglobin (hgb) + systemic / in life observation / body weight / body weight gain + systemic / …
[18] = systemic / urinalysis / appearance and color / appearance and color

CCCN(CCC)c1c([N+](=O)[O-])cc(C(F)(F)F)cc1[N+](=O)[O-] [Trifluralin]
LEL [1, 8]: 0.75 mg/kg/day | NEL [1, 8]: < 0.75 mg/kg/day | NOAEL ([1]; systemic / clinical chemistry / gamma glutamyl transferase (ggt) / gamma glutamyl transferase (ggt) + systemic / in life observation / body …): 2.4 mg/kg/day | LOAEL ([1]; systemic / in life observation / body weight / body weight + systemic / in life observation / body weight / body weight gain + systemic / in…): 40 mg/kg/day | LEL [2, 9]: 500 mg/kg/day | LOAEL [2, 9]: 500 mg/kg/day | NEL [2, 9]: 100 mg/kg/day | NOAEL [2, 9]: 100 mg/kg/day | LEL [2, 10]: 500 mg/kg/day | LOAEL [2, 10]: 500 mg/kg/day | NEL [2, 10]: 100 mg/kg/day | NOAEL [2, 10]: 100 mg/kg/day | LEL [3, 11]: 47 mg/kg/day | LOAEL [3, 11]: 47 mg/kg/day | NEL [3, 12]: 15 mg/kg/day | NOAEL [3, 12]: 15 mg/kg/day | NEL [3, 13]: 15 mg/kg/day | NOAEL [3, 13]: 15 mg/kg/day | LEL [3, 14]: 47 mg/kg/day | LOAEL [3, 14]: 47 mg/kg/day | NEL ([4]; systemic / hematology / methemoglobin / methemoglobin + systemic / clinical chemistry / cholesterol / cholesterol + systemic / clinical …): 0.8 mg/kg/day | LOAEL ([4]; systemic / organ weight / liver / absolute): 3.8 mg/kg/day | NOAEL ([4]; systemic / organ weight / liver / absolute + systemic / clinical chemistry / cholesterol / cholesterol + systemic / clinical chemistry / …): 0.8 mg/kg/day | LEL ([4]; systemic / organ weight / liver / absolute + systemic / hematology / methemoglobin / methemoglobin): 3.8 mg/kg/day | LEL [5, 15]: 500 mg/kg/day | LOAEL [5, 15]: 500 mg/kg/day | NEL [5, 15]: 225 mg/kg/day | NOAEL [5, 15]: 225 mg/kg/day | LEL [5, 16]: 225 mg/kg/day | LOAEL [5, 16]: 225 mg/kg/day | NEL [5, 16]: 100 mg/kg/day | NOAEL [5, 16]: 100 mg/kg/day | LOAEL [6, 17]: 392 mg/kg/day | NOAEL [6, 17]: 154 mg/kg/day | LEL [6, 18]: 59 mg/kg/day | NEL [6, 18]: < 59 mg/kg/day | LEL [7]: 169 mg/kg/day | LOAEL [7]: 169 mg/kg/day | NEL [7]: 40 mg/kg/day | NOAEL [7]: 40 mg/kg/day
